Data reported in ChEMBL document CHEMBL5252524, “Therapeutic progress in amyotrophic lateral sclerosis-beginning to learning” (2016).

Experiments:
Format in all cases: functional
Mus musculus [1] = species: Mus musculus; test: Anti-oxidative activity against ALS mouse model assessed as animal survival relative to control
Mus musculus [2] = species: Mus musculus; test: Anti-excitotoxic activity against ALS transgenic mouse model harbouring human G93A SOD1 (B6SJL-TgN(SOD1-G93A)1Gur mutant assessed as survival relative to control
Mus musculus [3] = species: Mus musculus; test: Anti-oxidative activity against ALS transgenic mouse model harbouring human G93A SOD1 (B6SJL-TgN(SOD1-G93A)1Gur mutant assessed as survival relative to control
Mus musculus [4] = species: Mus musculus; test: Anti-inflammatory activity against ALS B6SJLF1/J mouse model assessed as animal survival relative to control
Mus musculus [5] = species: Mus musculus; test: Anti-inflammatory activity against ALS transgenic mouse model harbouring human G93A SOD1 (B6SJL-TgN(SOD1-G93A)1Gur mutant assessed as survival relative to control
Mus musculus [6] = species: Mus musculus; test: Effect on mitochondrial protection in ALS mouse model assessed as survival relative to control
[7] = target: Superoxide dismutase [Cu-Zn] (Homo sapiens) (UniProt P00441); test: Effect on human SOD1 protein homeostasis in ALS mouse model assessed as survival relative to control
Mus musculus [8] = species: Mus musculus; test: Anti-apoptotic activity against ALS mouse model assessed as animal survival relative to control
Mus musculus [9] = species: Mus musculus; test: Anti-excitotoxic activity against ALS mouse model assessed as animal survival relative to control
Mus musculus [10] = species: Mus musculus; test: Anti-apoptotic activity against ALS mouse model expressing human G93A SOD1 mutant assessed as survival relative to control
Mus musculus [11] = species: Mus musculus; test: Anti-inflammatory activity against ALS mouse model harbouring human G93A SOD1 mutant assessed as survival relative to control
Mus musculus [12] = species: Mus musculus; test: Anti-inflammatory activity against ALS mouse model assessed as animal survival relative to control

Chain of Superoxide dismutase [Cu-Zn] (Homo sapiens) (P00441 whole entry): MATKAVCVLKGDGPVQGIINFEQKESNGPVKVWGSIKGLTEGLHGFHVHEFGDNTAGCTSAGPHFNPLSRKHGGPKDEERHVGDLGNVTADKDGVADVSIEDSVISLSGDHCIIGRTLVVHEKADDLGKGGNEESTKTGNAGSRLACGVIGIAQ

C#CCN(C)Cc1ccc(O)c2ncccc12
Survival (Mus musculus [1]): 6%

CO/N=C(\C(=O)N[C@@H]1C(=O)N2C(C(=O)O)=C(CSc3nc(=O)c(O)nn3C)CS[C@H]12)c1csc(N)n1 [CEFTRIAXONE]
Survival (Mus musculus [2]): 8%

COC1=C(OC)C(=O)C(CCCCCCCCCC[P+](c2ccccc2)(c2ccccc2)c2ccccc2)=C(C)C1=O.CS(=O)(=O)[O-] [MITOQUINONE MESYLATE]
Survival (Mus musculus [3]): 4%

CCc1ccc(CCOc2ccc(CC3SC(=O)NC3=O)cc2)nc1 (centres undefined) [PIOGLITAZONE]
Survival (Mus musculus [4]): 8%

Nc1cccc2c1CN(C1CCC(=O)NC1=O)C2=O (centres undefined) [LENALIDOMIDE]
Survival (Mus musculus [5]): 18%

CC(C)CCC[C@@H](C)[C@H]1CC[C@H]2[C@@H]3CCC4=CC(=NO)CC[C@]4(C)[C@H]3CC[C@]12C [OLESOXIME]
Survival (Mus musculus [6]): 10%

CN(CC(=O)O)C(=N)N.O
Survival (Mus musculus [6]): 15%

O=C([O-])[O-].[Li+].[Li+]
Survival [7]: 36%

CN(C)c1ccc(O)c2c1C[C@H]1C[C@H]3[C@H](N(C)C)C(O)=C(C(N)=O)C(=O)[C@@]3(O)C(O)=C1C2=O [MINOCYCLINE]
Survival (Mus musculus [8]): 6%

[O-][n+]1cccc(/C(Cl)=N/OC[C@H](O)CN2CCCCC2)c1
Survival [7]: 9%

Nc1nc2ccc(OC(F)(F)F)cc2s1 [RILUZOLE]
Survival (Mus musculus [9]): 10%

CC(=O)N[C@@H](CS)C(=O)O [ACETYLCYSTEINE]
Survival (Mus musculus [3]): 7%

COc1ccc2[nH]cc(CCNC(C)=O)c2c1 [MELATONIN]
Survival (Mus musculus [10]): 7%

CC1=C(O)C(=O)C=C2C1=CC=C1[C@@]2(C)CC[C@@]2(C)[C@@H]3C[C@](C)(C(=O)O)CC[C@]3(C)CC[C@]12C [CELASTROL]
Survival (Mus musculus [5]): 9%

CN1CCCCC1Cn1cc(C(=O)c2cc([N+](=O)[O-])ccc2I)c2ccccc21 (centres undefined)
Survival (Mus musculus [11]): 10%

O=C1CCC(N2C(=O)c3ccccc3C2=O)C(=O)N1 (centres undefined) [THALIDOMIDE]
Survival (Mus musculus [12]): 12%

CC12CC3CC(C)(C1)CC(N)(C3)C2 [MEMANTINE]
Survival (Mus musculus [2]): 5%

O=C([O-])CCCc1ccccc1.[Na+] [SODIUM PHENYLBUTYRATE]
Survival (Mus musculus [8]): 22%

Cc1ccc(-c2cc(C(F)(F)F)nn2-c2ccc(S(N)(=O)=O)cc2)cc1 [CELECOXIB]
Survival (Mus musculus [12]): 25%
